# In ChEMBL document CHEMBL4819020, “Discovery of [1,2,4]triazolo[1,5-a]pyrimidines derivatives as potential anticancer agents” (Eur J Med Chem, 2021):
# Active and inactive are the calls of the source. No cut-off for these calls is given here.
# Columns and labels:
# MCF7 = test: Antiproliferative activity against human MCF7 cells assessed as inhibition of cell proliferation measured after 72 hrs by MTT assay; assay type: functional, cell-based; conditions: MCF7, 72 h
# PC-9 = test: Antiproliferative activity against human PC-9 cells assessed as inhibition of cell proliferation measured after 72 hrs by MTT assay; assay type: functional, cell-based; conditions: PC-9, 72 h
# MGC-803 [1] = test: Antiproliferative activity against human MGC-803 cells assessed as cell viability measured after 24 to 72 hrs by MTT assay; assay type: functional, cell-based; conditions: dose 0.75-3 µM, time 24-72 hrs
# MGC-803 [2] = test: Antiproliferative activity against human MGC-803 cells assessed as inhibition of colony formation at 0.125 to 0.5 uM measured after 7 days by crystal violet dye based colony formation assay; assay type: functional, cell-based; conditions: dose 0.125-0.5 µM, time 7.0 day
# MGC-803 [3] = test: Cell cycle arrest in human MGC-803 cells assessed as accumulation of cells in G0/G1 phase at 0.75 uM measured after 24 hrs by PI staining based flow cytometry assay (reference value: 49.39%); assay type: functional
# MGC-803 [4] = test: Cell cycle arrest in human MGC-803 cells assessed as accumulation of cells in S phase at 0.75 uM measured after 24 hrs by PI staining based flow cytometry assay (reference value: 18.03%); assay type: functional
# MGC-803 [5] = test: Cell cycle arrest in human MGC-803 cells assessed as accumulation of cells in G2/M phase at 0.75 uM measured after 24 hrs by PI staining based flow cytometry assay (reference value: 33.35%); assay type: functional
# MGC-803 [6] = test: Cell cycle arrest in human MGC-803 cells assessed as accumulation of cells in S phase at 1.5 uM measured after 24 hrs by PI staining based flow cytometry assay (reference value: 18.03%); assay type: functional
# MGC-803 [7] = test: Cell cycle arrest in human MGC-803 cells assessed as accumulation of cells in G2/M phase at 1.5 uM measured after 24 hrs by PI staining based flow cytometry assay (reference value: 33.35%); assay type: functional
# MGC-803 [8] = test: Cell cycle arrest in human MGC-803 cells assessed as accumulation of cells in G0/G1 phase at 3 uM measured after 24 hrs by PI staining based flow cytometry assay (reference value: 49.39%); assay type: functional
# MGC-803 [9] = test: Cell cycle arrest in human MGC-803 cells assessed as accumulation of cells in S phase at 3 uM measured after 24 hrs by PI staining based flow cytometry assay (reference value: 18.03%); assay type: functional
# MGC-803 [10] = test: Cell cycle arrest in human MGC-803 cells assessed as accumulation of cells in G2/M phase at 3 uM measured after 24 hrs by PI staining based flow cytometry assay (reference value: 33.35%); assay type: functional
# MGC-803 [11] = test: Induction of apoptosis in human MGC-803 cells assessed by cell rounding at 0.75 to 3 uM measured after 48 hrs by Hoechst 33342 staining based microscopic method; assay type: functional; conditions: dose 0.75-3 µM
# MGC-803 [12] = test: Induction of apoptosis in human MGC-803 cells assessed by formation of apoptotic bodies at 0.75 to 3 uM measured after 48 hrs by Hoechst 33342 staining based microscopic method; assay type: functional, cell-based; conditions: dose 0.75-3 µM
# MGC-803 [13] = test: Induction of apoptosis in human MGC-803 cells assessed by nuclear fragmentation at 0.75 to 3 uM measured after 48 hrs by Hoechst 33342 staining based microscopic method; assay type: functional, cell-based; conditions: dose 0.75-3 µM
# MGC-803 [14] = test: Induction of apoptosis in human MGC-803 cells assessed as viable cells at 0.75 uM measured after 48 hrs by Annexin V-FITC/PI staining based flow cytometry method (reference value: 92.3 %); assay type: functional; conditions: read-out: Activity
# MGC-803 [15] = test: Induction of apoptosis in human MGC-803 cells assessed as early apoptotic cells at 0.75 uM measured after 48 hrs by Annexin V-FITC/PI staining based flow cytometry method (reference value: 0.992 %); assay type: functional
# MGC-803 [16] = test: Induction of apoptosis in human MGC-803 cells assessed as viable cells at 1.5 uM measured after 48 hrs by Annexin V-FITC/PI staining based flow cytometry method (reference value: 92.3 %); assay type: functional; conditions: read-out: Activity
# MGC-803 [17] = test: Induction of apoptosis in human MGC-803 cells assessed as early apoptotic cells at 1.5 uM measured after 48 hrs by Annexin V-FITC/PI staining based flow cytometry method (reference value: 0.992 %); assay type: functional
# MGC-803 [18] = test: Induction of apoptosis in human MGC-803 cells assessed as late apoptotic cells at 1.5 uM measured after 48 hrs by Annexin V-FITC/PI staining based flow cytometry method (reference value: 3.10 %); assay type: functional
# MGC-803 [19] = test: Induction of apoptosis in human MGC-803 cells assessed as necrotic cells at 1.5 uM measured after 48 hrs by Annexin V-FITC/PI staining based flow cytometry method (reference value: 3.60 %); assay type: functional
# MGC-803 [20] = test: Induction of apoptosis in human MGC-803 cells assessed as early apoptotic cells at 3 uM measured after 48 hrs by Annexin V-FITC/PI staining based flow cytometry method (reference value: 0.992 %); assay type: functional
# MGC-803 [21] = test: Induction of apoptosis in human MGC-803 cells assessed as necrotic cells at 3 uM measured after 48 hrs by Annexin V-FITC/PI staining based flow cytometry method (reference value: 3.60 %); assay type: functional
# MGC-803 [22] = test: Induction of apoptosis in human MGC-803 cells assessed by increase in ROS production at 3 uM measured after 24 hrs by DCFH-DA staining based flow cytometry; assay type: functional, cell-based
# MGC-803 [23] = test: Induction of apoptosis in human MGC-803 cells assessed as upregulation of Bax at 0.75 to 3 uM measured after 48 hrs by western blot assay; assay type: functional, cell-based; conditions: dose 0.75-3 µM
# MGC-803 [24] = test: Induction of apoptosis in human MGC-803 cells assessed as decrease in Bcl-2 expression at 0.75 to 3 uM measured after 48 hrs by western blot assay; assay type: functional, cell-based; conditions: dose 0.75-3 µM
# MGC-803 [25] = test: Induction of apoptosis in human MGC-803 cells assessed as increase in cleaved caspase expression at 0.75 to 3 uM measured after 48 hrs by western blot assay; assay type: functional, cell-based; conditions: dose 0.75-3 µM
# [26] = Toxicity in mouse assessed as mouse survival at 2 mg/kg, ig measured after 2 weeks; assay type: organism-based; conditions: in vivo, po, 336 h
# [27] = Toxicity in mouse assessed by effect on changes in body weight at 2 mg/kg, ig measured after 2 weeks; assay type: organism-based; conditions: in vivo, po, 336 h
# [28] = Toxicity in mouse assessed as effect on heart at 2 mg/kg, ig measured after 2 weeks by H and E staining based microscopic method; assay type: organism-based; conditions: in vivo, po, 336 h
# [29] = Toxicity in mouse assessed as effect on liver at 2 mg/kg, ig measured after 2 weeks by H and E staining based microscopic method; assay type: organism-based; conditions: in vivo, po, 336 h
# [30] = Toxicity in mouse assessed as effect on lung at 2 mg/kg, ig measured after 2 weeks by H and E staining based microscopic method; assay type: organism-based; conditions: in vivo, po, 336 h
# [31] = Toxicity in mouse assessed as effect on spleen at 2 mg/kg, ig measured after 2 weeks by H and E staining based microscopic method; assay type: organism-based; conditions: in vivo, po, 336 h
# [32] = Toxicity in mouse assessed as effect on kidney at 2 mg/kg, ig measured after 2 weeks by H and E staining based microscopic method; assay type: organism-based; conditions: in vivo, po, 336 h
# [33] = Selectivity index, ratio of EC50 for human MGC-803 cells to EC50 for human GES1 cells
# MGC-803 [34] = test: Antiproliferative activity against human MGC-803 cells assessed as cell viability measured at 0.75 to 3 uM by MTT assay; assay type: functional, cell-based; conditions: dose 0.75-3 µM, time 24-72 hrs, TDE = time-dependent effect
smiles,measurement,setting,value
Cc1cc(Nc2ccn(Cc3nc(C)c4ccccc4n3)n2)n2nc(SCc3ccc(Br)cc3)nc2n1,IC50,MCF7,1.43 µM
same,IC50,PC-9,5.45 µM
same,Activity,MGC-803 [1],Dose-Dependent Effect
same,Activity,MGC-803 [2],Active
same,Activity,MGC-803 [3],56.2%
same,Activity,MGC-803 [4],22.83%
same,Activity,MGC-803 [5],19.3%
same,Activity,MGC-803 [6],20.75%
same,Activity,MGC-803 [7],14.61%
same,Activity,MGC-803 [8],69.99%
same,Activity,MGC-803 [9],18.5%
same,Activity,MGC-803 [10],4.64%
same,Activity,MGC-803 [11],Dose-Dependent Effect
same,Activity,MGC-803 [12],Dose-Dependent Effect
same,Activity,MGC-803 [13],Dose-Dependent Effect
same,viability at 0.75 µM,MGC-803 [14],89.1%
same,Activity,MGC-803 [15],2.17%
same,viability at 1.5 µM,MGC-803 [16],80.3%
same,Activity,MGC-803 [17],6.85%
same,Activity,MGC-803 [18],10.4%
same,Activity,MGC-803 [19],2.47%
same,Activity,MGC-803 [20],19.3%
same,Activity,MGC-803 [21],24.9%
same,Activity,MGC-803 [22],Active
same,Activity,MGC-803 [23],Dose-Dependent Effect
same,Activity,MGC-803 [24],Dose-Dependent Effect
same,Activity,MGC-803 [25],Dose-Dependent Effect
same,Activity,[26],Non-Toxic
same,Activity,[27],Non-Toxic
same,Activity,[28],Non-Toxic
same,Activity,[29],Non-Toxic
same,Activity,[30],Non-Toxic
same,Activity,[31],Non-Toxic
same,Activity,[32],Non-Toxic
same,Ratio EC50,[33],38
same,Activity,MGC-803 [34],Tde
